Reference: patent publication US20150283137A1, “6-oxo-1,6-dihydro-pyridazine derivative for the use for the treatment of hepatocellular carcinoma (HCC)” (MERCK PATENT GMBH, priority 2012, published 2015)
“Also recorded” adds a separate entry of the source.

Columns and labels:
[1] = test system: human primary HCC explants
Description: Method: Male BalB/c nude mice (6-8 week old) where subcutaneously transplanted with a primary HCC tumor fragment. Animals were divided into treatment groups (12 animals in one group) after the tumors were established. Respective groups were administered orally with the 3-(1-{3-[5-(1-methyl-piperidin-4-ylmethoxy)-pyrimidin-2-yl]-benzyl}-6-oxo-1,6-dihydro-pyridazin-3-yl)-benzonitrile hydrochloride hydrate at 100 mg/kg for 5 out of 7 days.

[2] = test system: human MHCC97H liver tumor cells; experiment: Subcutaneous MHCC97H tumor model; format: in vivo, mice; settings: for T/C ratio: 5 days on and 2 days on; for anti-tumor activity (in words): established fast growing subcutaneous MHCC97H tumors
Description: Method: Male BalB/c nude mice (6-8 week old) where subcutaneously injected with human MHCC97H liver tumor cells and were divided into treatment groups (ten animals in one group) after the tumors were established (ca. 500 mm^3). Respective groups were administered orally with the 3-(1-{3-[5-(1-methyl-piperidin-4-ylmethoxy)-pyrimidin-2-yl]-benzyl}-6-oxo-1,6-dihydro-pyridazin-3-yl)-benzonitrile hydrochloride hydrate at different doses (10, 30 and 100 mg/kg) for 5 days on and […] or daily with sorafenib (50 mg/kg).

MHCC97H tumor fragments = experiment: Orthotopic MHCC97H tumor model; settings: 100 mg/kg orally
Description: Method: In male BalB/c nude mice (7-8 week old) MHCC97H tumor fragments (2-3 mm^3) where orthotopically implanted into the left lobe of the liver. After 1 week of intrahepatic implantation animals were divided into treatment groups (ten animals in one group). Respective groups were administered orally with 3-(1-{3-[5-(1-methyl-piperidin-4-ylmethoxy)-pyrimidin-2-yl]-benzyl}-6-oxo-1,6-dihydro-pyridazin-3-yl)-benzonitrile hydrochloride hydrate at 100 mg/kg/5 days on and 2 days off for 5 weeks. At the end of treatment, tumor size and tumor weight were measured, plasma AFP levels and lung metastases analyzed.

Compound: CN1CCC(COc2cnc(-c3cccc(Cn4nc(-c5cccc(C#N)c5)ccc4=O)c3)nc2)CC1.Cl.O [3-(1-{3-[5-(1-methyl-piperidin-4-ylmethoxy)-pyrimidin-2-yl]-benzyl}-6-oxo-1,6-dihydro-pyridazin-3-yl)-benzonitrile hydrochloride hydrate]
- tolerability (body weight) ([1]; all mice): well tolerated in all mice
- anti-tumor activity compared with sorafenib monotherapy ([1]; models LIM801 and LIM612 (strong signs of c-Met signaling)): better anti-tumor activity than sorafenib monotherapy
- further activity in primary explants (in words) ([1]; nine primary explants, besides CR and SD): marginal activity in one additional model
- complete responses (CR) ([1]; nine subcutaneous established primary explants, 100 mg/kg 5 out of 7 days): 1/9
- number of models with significantly inhibited growth ([1]; out of 9 models, 100 mg/kg/5 out of 7 days): 4
- tumor growth delay (TGD, time to reach a tumor volume of 1000 mm^3) ([2]; 10 mg/kg orally): 24 days
- T/C ratio ([2]; 10 mg/kg orally, end of treatment, tumors ca. 500 mm^3 at start): −57%
- tumor growth delay (TGD, time to reach a tumor volume of 1000 mm^3) ([2]; 30 mg/kg orally): 53 days
- T/C ratio ([2]; 30 mg/kg orally, end of treatment): −93%
- tumor growth delay (TGD, time to reach a tumor volume of 1000 mm^3) ([2]; 100 mg/kg orally): > 53 days
- T/C ratio ([2]; 100 mg/kg orally, end of treatment): −93%
- anti-tumor activity (in words) [2]: completely inhibited growth and induced regressions
- tolerability (MHCC97H tumor fragments; 5 days on and 2 days off for 5 weeks): well tolerated
- anti-tumor activity on primary tumor (in words) (MHCC97H tumor fragments; 5 days on and 2 days off for 5 weeks, end of treatment at day 35, hydrochloride hydrate): complete regression in all mice; also recorded: primary tumor regression (p<0.001)
- lung metastases (MHCC97H tumor fragments; end of treatment): reduction lung metastases (p<0.01)
- AFP levels in plasma (MHCC97H tumor fragments; end of treatment, hydrochloride hydrate): no AFP was measurable; also recorded: significantly reduced (p<0.001)
- body weight (MHCC97H tumor fragments; followed throughout the study): no body weight loss could be detected

Compound: CNC(=O)c1cc(Oc2ccc(NC(=O)Nc3ccc(Cl)c(C(F)(F)F)c3)cc2)ccn1 [sorafenib, reference compound]
- number of models with anti-tumor activity ([1]; out of 9 models, sorafenib 50 mg/kg/5 out of 7 days): 7
- anti-tumor activity (in words) [2]: marginal anti tumor activity with no tumor regressions
- T/C value ([2]; sorafenib 50 mg/kg orally daily, end of treatment): 27%
